Reference: patent US20250163044A1, “COMPOUNDS” (PSYLO PTY LTD, priority 2021, published 2025)

Assays:
Format in all cases: cell-based
[1] = biological target: T1, 5-HT2A receptor (Homo sapiens, UniProt P28223); assay: FLIPR Ca2+ flux functional assay, agonist activity at 5-HT2A; details: HEK293 cells, Ca2+ flux; for EC50: read-out: 5-HT2A EC50
T1 construct: host or cells: HEK293
Procedure: (§1) Activity at 5-HT2A, 5-HT2B and 5-HT2C receptors was determined using a FLIPR Ca2+ flux assay at WuXi AppTec Co. Ltd. (Hong Kong) Discovery Biology Unit according to their standard protocols. Briefly, stably transfected cells expressing the receptor of interest (HEK293 for 5-HT2A and 5-HT2C; CHO-K1 for 5-HT2B) were grown and plated in a 384 well plate and incubated at 37° C. and 5% CO2 overnight. A 250 mM stock solution of probenecid in FLIPR calcium assay buffer (10 mL) was freshly prepared and combined with a fluorescent dye (Fluo-4 Direct) to give a final assay concentration of 2.5 mM. Reference compounds were 4-fold serially diluted and the screening compounds were 3-fold serially diluted in 100% DMSO for 10 points using Agilent Bravo, and 750 nL was added to a 384 well compound plate using Echo along with 30 μL assay buffer. The fluorescent dye was then added to the assay plate along with assay buffer to a final volume of 40 μL. The cell plate was incubated for 50 min at 37° C. and 5% CO2 and placed into the FLIPR Tetra along with the compound plate. 10 μL of references and compounds were then transferred from the compound plate into the cell plate and the fluorescent signal was read.

[2] = biological target: T2, 5-HT2B receptor (Homo sapiens, UniProt P41595); assay: FLIPR Ca2+ flux functional assay, agonist activity at 5-HT2B; details: CHO-K1 cells, Ca2+ flux; for EC50: read-out: 5-HT2B EC50
T2 construct: host or cells: CHO-K1
Procedure: as §1

[3] = biological target: T3, 5-HT2C receptor (Homo sapiens, UniProt P28335); assay: FLIPR Ca2+ flux functional assay, agonist activity at 5-HT2C; details: HEK293 cells, Ca2+ flux; for EC50: read-out: 5-HT2C EC50
T3 construct: host or cells: HEK293
T3 sequence (P28335 33-458): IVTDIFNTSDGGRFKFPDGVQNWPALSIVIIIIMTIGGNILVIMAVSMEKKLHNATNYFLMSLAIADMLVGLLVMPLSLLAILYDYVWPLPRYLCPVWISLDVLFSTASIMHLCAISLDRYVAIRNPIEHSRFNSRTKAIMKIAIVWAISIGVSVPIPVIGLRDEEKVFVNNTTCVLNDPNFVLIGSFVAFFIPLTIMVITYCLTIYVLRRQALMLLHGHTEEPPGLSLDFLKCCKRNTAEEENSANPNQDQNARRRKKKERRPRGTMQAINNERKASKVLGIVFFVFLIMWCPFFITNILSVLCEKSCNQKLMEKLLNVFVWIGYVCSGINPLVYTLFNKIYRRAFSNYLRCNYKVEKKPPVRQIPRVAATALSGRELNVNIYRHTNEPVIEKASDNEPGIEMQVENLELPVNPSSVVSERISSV
Procedure: as §1

T2 sequence (P41595 whole entry): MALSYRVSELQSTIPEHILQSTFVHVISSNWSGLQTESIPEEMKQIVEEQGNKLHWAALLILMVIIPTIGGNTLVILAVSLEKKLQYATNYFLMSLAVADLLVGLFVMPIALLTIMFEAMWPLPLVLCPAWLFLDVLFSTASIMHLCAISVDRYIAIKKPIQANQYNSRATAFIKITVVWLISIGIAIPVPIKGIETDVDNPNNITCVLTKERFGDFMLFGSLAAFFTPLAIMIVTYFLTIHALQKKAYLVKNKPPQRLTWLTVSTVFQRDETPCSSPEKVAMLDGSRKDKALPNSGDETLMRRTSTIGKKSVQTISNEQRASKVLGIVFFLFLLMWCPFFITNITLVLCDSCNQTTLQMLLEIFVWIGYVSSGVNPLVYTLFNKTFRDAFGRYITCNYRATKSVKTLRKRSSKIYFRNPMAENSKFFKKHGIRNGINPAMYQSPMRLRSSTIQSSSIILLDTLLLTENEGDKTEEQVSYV
T1 sequence (P28223 whole entry): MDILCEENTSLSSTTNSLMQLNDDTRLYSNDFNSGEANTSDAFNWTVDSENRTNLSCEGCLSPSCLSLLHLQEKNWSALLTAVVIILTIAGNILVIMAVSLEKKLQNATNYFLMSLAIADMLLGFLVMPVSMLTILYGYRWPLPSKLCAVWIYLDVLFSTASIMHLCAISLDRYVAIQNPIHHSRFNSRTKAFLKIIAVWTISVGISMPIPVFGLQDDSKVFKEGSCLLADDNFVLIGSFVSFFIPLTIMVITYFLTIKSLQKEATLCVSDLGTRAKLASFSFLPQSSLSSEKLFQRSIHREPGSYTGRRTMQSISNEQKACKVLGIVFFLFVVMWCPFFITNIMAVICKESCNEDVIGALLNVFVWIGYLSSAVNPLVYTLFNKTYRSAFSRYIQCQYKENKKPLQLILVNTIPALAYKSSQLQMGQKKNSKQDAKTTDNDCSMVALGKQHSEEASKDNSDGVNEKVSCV

In the case of `Cc1cnc2[nH]cc(CCN(C)C)c2c1` [Example P-22, N,N-dimethyl-2-(5-methyl-1H-pyrrolo[2,3-b]pyridin-3-yl)ethan-1-amine], the Emax [1] is reported as 55.5%, the EC50 [1] is reported as 691 nM and the Emax [2] is reported as 1.91%. For the same molecule, the EC50 [2] was > 10000 nM, the Emax [3] was 0.27% and the EC50 [3] was > 10000 nM.

`CCN(C)CCc1c[nH]c2ncc(C)cc12` [Example P-23, N-ethyl-N-methyl-2-(5-methyl-1H-pyrrolo[2,3-b]pyridin-3-yl)ethan-1-amine] gave an Emax [1] of 55%, an EC50 [1] of 1240 nM and an Emax [2] of 0.88%. The EC50 [2] was > 10000 nM, the Emax [3] was -0.04% and the EC50 [3] was > 10000 nM.

`CN(C)CCc1c[nH]c2ncc(F)cc12` [Example P-24, N,N-dimethyl-2-(5-fluoro-1H-pyrrolo[2,3-b]pyridin-3-yl)ethan-1-amine] gave an Emax [1] of 56.5%, an EC50 [1] of 80.8 nM and an Emax [2] of 6.16%. For the same molecule, the EC50 [2] was > 10000 nM, the Emax [3] was 24.7% and the EC50 [3] was > 10000 nM.

For `CCN(C)CCc1c[nH]c2ncc(F)cc12` [Example P-25, N-ethyl-N-methyl-2-(5-fluoro-1H-pyrrolo[2,3-b]pyridin-3-yl)ethan-1-amine], the Emax [1] was 70.3%, the EC50 [1] was 109 nM and the Emax [2] was 8.23%. The EC50 [2] was > 10000 nM, the Emax [3] was 21% and the EC50 [3] was > 10000 nM.

`CCN(CC)CCc1c[nH]c2nccc(OC)c12` [Example P-26, N,N-diethyl-2-(4-methoxy-1H-pyrrolo[2,3-b]pyridin-3-yl)ethan-1-amine] showed an Emax [1] of 58.3%, an EC50 [1] of 1620 nM and an Emax [2] of 3.08%. For the same molecule, the EC50 [2] was > 10000 nM, the Emax [3] was 0.9% and the EC50 [3] was > 10000 nM.

In the case of `COc1ccnc2[nH]cc(CCN(C(C)C)C(C)C)c12` [Example P-27, N-isopropyl-N-(2-(4-methoxy-1H-pyrrolo[2,3-b]pyridin-3-yl)ethyl)propan-2-amine], the Emax [1] is reported as 80.2%, the EC50 [1] is reported as 857 nM and the Emax [2] is reported as 35.6%. For the same molecule, the EC50 [2] was > 10000 nM, the Emax [3] was 0.54% and the EC50 [3] was > 10000 nM.

`CCN(C)CCc1c[nH]c2nccc(OC)c12` [Example P-28, N-ethyl-2-(4-methoxy-1H-pyrrolo[2,3-b]pyridin-3-yl)-N-methylethan-1-amine] gave an Emax [1] of 70.5%, an EC50 [1] of 782 nM and an Emax [2] of 0.69%. The EC50 [2] was > 10000 nM, the Emax [3] was -0.06% and the EC50 [3] was > 10000 nM.

`COc1ccnc2[nH]cc(CCN(C)C(C)C)c12` [Example P-29, N-(2-(4-methoxy-1H-pyrrolo[2,3-b]pyridin-3-yl)ethyl)-N-methylpropan-2-amine] gave an Emax [1] of 71.6%, an EC50 [1] of 555 nM and an Emax [2] of 0.59%. For the same molecule, the EC50 [2] was > 10000 nM, the Emax [3] was 0.48% and the EC50 [3] was > 10000 nM.

In the case of `Cc1ccnc2[nH]cc(CCN(C)C)c12` [Example P-30, N,N-dimethyl-2-(4-methyl-1H-pyrrolo[2,3-b]pyridin-3-yl)ethan-1-amine], the Emax [1] is reported as 56.6%, the EC50 [1] is reported as 387 nM and the Emax [2] is reported as 0.03%. The EC50 [2] was > 10000 nM, the Emax [3] was 1.04% and the EC50 [3] was > 10000 nM.

`CCN(C)CCc1c[nH]c2nccc(C)c12` [Example P-31, N-ethyl-N-methyl-2-(4-methyl-1H-pyrrolo[2,3-b]pyridin-3-yl)ethan-1-amine] was tested, and the Emax [1] was 54.5%, the EC50 [1] was 1020 nM and the Emax [2] was 1.01%. For the same molecule, the EC50 [2] was > 10000 nM, the Emax [3] was 0.01% and the EC50 [3] was > 10000 nM.

In the case of `CN(C)CCc1c[nH]c2nccc(F)c12` [Example P-32, N,N-dimethyl-2-(4-fluoro-1H-pyrrolo[2,3-b]pyridin-3-yl)ethan-1-amine], the Emax [1] is reported as 57.8%, the EC50 [1] is reported as 414 nM and the Emax [2] is reported as 0.14%. For the same molecule, the EC50 [2] was > 10000 nM, the Emax [3] was 0.61% and the EC50 [3] was > 10000 nM.

Molecule `CCN(C)CCc1c[nH]c2nccc(F)c12` [Example P-33, N-ethyl-N-methyl-2-(4-fluoro-1H-pyrrolo[2,3-b]pyridin-3-yl)ethan-1-amine] has an Emax [1] of 54.7%, an EC50 [1] of 641 nM and an Emax [2] of 0.01%. For the same molecule, the EC50 [2] was > 10000 nM, the Emax [3] was 0.33% and the EC50 [3] was > 10000 nM.

For `CCN(CC)CCc1c[nH]c2ccnc(OC)c12` [Example P-34, N,N-diethyl-2-(4-methoxy-1H-pyrrolo[3,2-c]pyridin-3-yl)ethan-1-amine], the Emax [1] was 82.6%, the EC50 [1] was 150 nM and the Emax [2] was 14.7%. For the same molecule, the EC50 [2] was > 10000 nM, the Emax [3] was 91.7% and the EC50 [3] was 682 nM.

With `CCCN(CCC)CCc1c[nH]c2ccnc(OC)c12` [Example P-35, N,N-dipropyl-2-(4-methoxy-1H-pyrrolo[3,2-c]pyridin-3-yl)ethan-1-amine] the Emax [1] was 82.2%, the EC50 [1] was 79 nM and the Emax [2] was 74.7%. It also gave an EC50 [2] of 78.5 nM, an Emax [3] of 55.6% and an EC50 [3] of 7180 nM.

Molecule `COc1nccc2[nH]cc(CCN(C(C)C)C(C)C)c12` [Example P-36, N,N-diisopropyl-2-(4-methoxy-1H-pyrrolo[3,2-c]pyridin-3-yl)ethan-1-amine] has an Emax [1] of 114%, an EC50 [1] of 77.1 nM and an Emax [2] of 48.9%. For the same molecule, the EC50 [2] was 96.4 nM, the Emax [3] was 38.4% and the EC50 [3] was > 10000 nM.

Molecule `CCN(C)CCc1c[nH]c2ccnc(OC)c12` [Example P-37, N-ethyl-2-(4-methoxy-1H-pyrrolo[3,2-c]pyridin-3-yl)-N-methylethan-1-amine] has an Emax [1] of 82.8%, an EC50 [1] of 86.8 nM and an Emax [2] of 2.6%. For the same molecule, the EC50 [2] was > 10000 nM, the Emax [3] was 105% and the EC50 [3] was 533 nM.

`COc1nccc2[nH]cc(CCN(C)C(C)C)c12` [Example P-38, N-(2-(4-methoxy-1H-pyrrolo[3,2-c]pyridin-3-yl)ethyl)-N-methylpropan-2-amine] showed an Emax [1] of 83.1%, an EC50 [1] of 77.7 nM and an Emax [2] of 19.6%. It also gave an EC50 [2] of 610 nM, an Emax [3] of 70.2% and an EC50 [3] of 1920 nM.

In the case of `CCN(CC)CCc1n[nH]c2cccc(OC)c12` [Example P-42, 2-(4-methoxy-1H-indazol-3-yl)-N,N-diethylethan-1-amine], the EC50 [1] is reported as 2980 nM, the EC50 [2] is reported as > 10000 nM and the EC50 [3] is reported as 3490 nM.

`CCN(CC)CCc1n[nH]c2cccc(O)c12` [Example P-43, 3-(2-(diethylamino)ethyl)-1H-indazol-4-ol] was tested, and the EC50 [1] was 2180 nM, the EC50 [2] was > 10000 nM and the EC50 [3] was > 10000 nM.

`CCCN(CCC)CCc1n[nH]c2cccc(OC)c12` [Example P-44, 2-(4-methoxy-1H-indazol-3-yl)-N,N-dipropylethan-1-amine] showed an EC50 [1] of 259 nM, an EC50 [2] of 490 nM and an EC50 [3] of 1700 nM.

With `CCCN(CCC)CCc1n[nH]c2cccc(O)c12` [Example P-45, 3-(2-(dipropylamino)ethyl)-1H-indazol-4-ol] the EC50 [1] was 160 nM, the EC50 [2] was > 10000 nM and the EC50 [3] was > 10000 nM.

With `CCN(CC)CCc1n[nH]c2ccc(OC)cc12` [Example P-48, N,N-diethyl-2-(5-methoxy-1H-indazol-3-yl)ethan-1-amine] the EC50 [1] was 6990 nM, the EC50 [2] was > 10000 nM and the EC50 [3] was > 10000 nM.

`CCCN(CCC)CCc1n[nH]c2ccc(OC)cc12` [Example P-49, N,N-dipropyl-2-(5-methoxy-1H-indazol-3-yl)ethan-1-amine] was tested, and the EC50 [1] was 1390 nM, the EC50 [2] was > 10000 nM and the EC50 [3] was > 10000 nM.

With `CCN(C)CCc1n[nH]c2ccc(OC)cc12` [Example P-51, N-ethyl-2-(5-methoxy-1H-indazol-3-yl)-N-methylethan-1-amine] the EC50 [1] was 526 nM, the EC50 [2] was > 10000 nM and the EC50 [3] was > 10000 nM.

`COc1ccc2[nH]nc(CCN(C)C(C)C)c2c1` [Example P-52, N-(2-(5-methoxy-1H-indazol-3-yl)ethyl)-N-methylpropan-2-amine] was tested, and the EC50 [1] was 1840 nM, the EC50 [2] was > 10000 nM and the EC50 [3] was > 10000 nM.

With `COc1cccc2[nH]nc(CCN(C)C)c12` [Example P-55, 2-(4-methoxy-1H-indazol-3-yl)-N,N-dimethylethan-1-amine] the EC50 [1] was 256 nM, the EC50 [2] was > 10000 nM and the EC50 [3] was 367 nM.

For `CN(C)CCc1n[nH]c2cccc(O)c12` [Example P-56, 3-(2-(dimethylamino)ethyl)-1H-indazol-4-ol], the Emax [1] was 50.5%, the EC50 [1] was 794 nM and the Emax [2] was -0.39%. For the same molecule, the EC50 [2] was > 10000 nM, the Emax [3] was 63.6% and the EC50 [3] was 1260 nM.
